Here are results for 3 compounds from patent US10610539B2, “Cardiac glycoside analogs and their use in methods for inhibition of viral infection” (priority 2013, dated 2020).

Test [1] deals with Herpes Simplex Virus 1 (HSV1). Conditions: reported; cited from earlier work.
A further test relates to Towne HCMV. Conditions: previously reported by the inventors; cited from earlier work.
The next test relates to breast cancer patients. Conditions: women with breast cancer taking digoxin vs. 34% not taking digitalis; cited from earlier work.
Test [2] relates to Human Foreskin Fibroblasts (HFFs). The class given is cell-based. Particulars: for cell cycle progression after mimosine arrest: HFFs treated with mimosine 48 hours, washed, treated one day. The procedure: Flow Cytometry: 1×10^5 HFFs from infected-treated or untreated conditions were washed with cold PBS. Cells were suspended in 70% pre-cooled alcohol. Cells were permeabilized in −20° C. for at least 2 hours followed by centrifugation at 5000 rpm for 5 minutes. The supernatants were discarded and cells were washed with cold PBS three times. Cells were re-suspended in 500 ul PBS, propidium iodide was added to a final concentration of 20-50 μg/ml and cells were incubated at room temperature for at least 10 minutes before applying them on flow machine.
The differences between the MTT and trypan blue assay complicated the calculation of antiviral selectivity. […] After 3 day serum starvation cells were released from serum starvation, infected with Towne HCMV and treated with digitoxin or the cardiac glycoside ouabain for 24 hours. HFFs were stained with propidium iodide and subjected to cell cycle analysis by flow cytometry.

On to `C[C@H]1O[C@@H](O[C@H]2[C@@H](O)C[C@H](O[C@H]3[C@@H](O)C[C@H](O[C@H]4CC[C@@]5(C)[C@H](CC[C@@H]6[C@@H]5C[C@@H](O)[C@]5(C)[C@@H](C7=CC(=O)OC7)CC[C@]65O)C4)O[C@@H]3C)O[C@@H]2C)C[C@H](O)[C@@H]1O` [digoxin], for which the “inhibition of Herpes Simplex Virus 1 (HSV1)” value in test [1] is on record as “inhibit Herpes Simplex Virus 1 (HSV1) in nanomolar concentrations”. Besides, in the test with Towne HCMV, the “inhibition of Towne HCMV replication” value is on record as “potent inhibitors of Towne HCMV replication”. In the test with breast cancer patients, the death rate is recorded as 6%.
`Nc1nc(O)c2ncn(COC(CO)CO)c2n1` [GCV, ganciclovir]: the “cell cycle progression after mimosine arrest” value in test [2] is “allowed the cells to normally progress in the cell cycle”.
Turning to `C[C@@H]1O[C@@H](O[C@H]2C[C@@H](O)[C@]3(CO)[C@H]4[C@H](O)C[C@]5(C)[C@@H](C6=CC(=O)OC6)CC[C@]5(O)[C@@H]4CC[C@]3(O)C2)[C@H](O)[C@H](O)[C@H]1O` [ouabain], in test [2] (HFFs released from 3 day serum starvation, infected with Towne HCMV, treated 24 hours), the cell cycle progression entry was “arrested HFFs in G1”. In addition, the “cell cycle progression after mimosine arrest” value in test [2] was “could not relieve HFFs from cell cycle arrest induced by mimosine”. For the same compound, the “inhibition of Herpes Simplex Virus 1 (HSV1)” value in test [1] is “inhibit Herpes Simplex Virus 1 (HSV1) in nanomolar concentrations”. Moreover, the “inhibition of Towne HCMV replication” value in the test on Towne HCMV was “potent inhibitors of Towne HCMV replication”.
